In ChEMBL document CHEMBL4622860, “The relationship between the structure and toxicity of aminoglycoside antibiotics” (Bioorg Med Chem Lett, 2020):

Key:
[1] = Ototoxicity against C57BL/6 mouse cochlea hair cells assessed as reduction in cell viability at 0.1 mM incubated for 23 hrs by FITC-phalloidin staining-based assay; format: toxicity; conditions: read-out: INH
[2] = Nephrotoxicity in human patients assessed as proportion of patients with higher serum creatinine level; format: toxicity; conditions: in vivo

Row | Compound | cytotoxicity at 23 h, 100 µM [1] | Activity [2]
1 | NC[C@@H]1O[C@H](O[C@H]2[C@@H](O)[C@H](O[C@@H]3[C@@H](O)[C@H](N)C[C@H](N)[C@H]3O[C@H]3O[C@H](CN)[C@@H](O)[C@H](O)[C@H]3N)O[C@@H]2CO)[C@H](N)[C@@H](O)[C@@H]1O [FRAMYCETIN] | 20% | 
2 | CN[C@@H]1[C@@H](O)[C@@H](O[C@@H]2[C@@H](O)[C@H](O[C@H]3OC(CNCCO)=CC[C@H]3N)[C@@H](N)C[C@H]2NC(=O)[C@@H](O)CCN)OC[C@]1(C)O [PLAZOMICIN] |  | 7%
3 | NC[C@@H]1O[C@H](O[C@H]2[C@@H](O)[C@H](O[C@@H]3[C@@H](O)[C@H](N)C[C@H](N)[C@H]3O[C@H]3O[C@H](CO)[C@@H](O)[C@H](O)[C@H]3N)O[C@@H]2CO)[C@H](N)[C@@H](O)[C@@H]1O [PAROMOMYCIN] | 4% | 
